Laboratory results: patent US20210300940A1 (Merck Patent GmbH, priority 2018, published 2021)

Columns and labels:
[1] = biological target: T1, TLR7 (Homo sapiens, UniProt Q9NYK1); experiment: HEK/293 TLR7 Cell Assay; assay type: cell-based; settings: TLR7/NFKb HEK cells, R848 agonist 10 uM final concentration, Steady-Glo readout; read-out: TLR7 potency
T1 construct: expressed in transfected cells; host or cells: HEK/293 cells carrying TLR7 and an NF-kB luciferase reporter
T1 sequence (Q9NYK1 27-1049): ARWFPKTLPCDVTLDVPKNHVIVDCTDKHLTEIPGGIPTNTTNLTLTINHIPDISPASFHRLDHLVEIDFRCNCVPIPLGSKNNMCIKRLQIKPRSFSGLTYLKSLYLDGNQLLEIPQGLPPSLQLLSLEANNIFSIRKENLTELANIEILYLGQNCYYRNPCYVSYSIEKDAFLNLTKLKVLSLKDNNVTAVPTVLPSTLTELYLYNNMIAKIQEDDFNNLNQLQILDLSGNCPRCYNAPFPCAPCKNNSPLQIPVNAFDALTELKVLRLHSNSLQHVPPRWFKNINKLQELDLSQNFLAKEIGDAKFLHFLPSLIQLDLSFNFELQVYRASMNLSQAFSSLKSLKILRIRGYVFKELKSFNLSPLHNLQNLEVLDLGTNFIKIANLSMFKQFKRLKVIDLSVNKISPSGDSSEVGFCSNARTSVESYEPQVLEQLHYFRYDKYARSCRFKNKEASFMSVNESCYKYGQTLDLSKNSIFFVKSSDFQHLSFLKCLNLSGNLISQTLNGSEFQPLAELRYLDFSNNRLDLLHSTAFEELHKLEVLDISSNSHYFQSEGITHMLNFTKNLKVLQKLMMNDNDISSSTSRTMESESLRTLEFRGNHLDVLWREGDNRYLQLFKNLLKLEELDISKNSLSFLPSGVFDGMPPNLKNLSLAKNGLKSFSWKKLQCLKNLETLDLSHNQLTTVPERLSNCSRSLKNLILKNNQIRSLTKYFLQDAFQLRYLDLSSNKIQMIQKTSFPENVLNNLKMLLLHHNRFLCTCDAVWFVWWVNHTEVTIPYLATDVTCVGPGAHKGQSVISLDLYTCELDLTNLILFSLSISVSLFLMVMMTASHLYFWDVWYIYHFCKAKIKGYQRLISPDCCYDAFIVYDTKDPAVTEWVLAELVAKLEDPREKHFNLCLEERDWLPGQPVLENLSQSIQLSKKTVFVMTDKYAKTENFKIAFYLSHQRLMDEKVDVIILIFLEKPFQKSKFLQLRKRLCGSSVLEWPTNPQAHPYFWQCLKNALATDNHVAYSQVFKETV
Outline: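 TLR7/NF-κB reporter HEK293 cells, 5000/well, cultured 24 h, then preincubated 30 min with compound before R848 agonist (10 uM final). After 5 h stimulation, Steady-Glo luciferase luminescence read.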

[2] = biological target: T2, TLR8 (Homo sapiens, UniProt Q9NR97); experiment: HEK/293 TLR8 Cell Assay; assay type: cell-based; settings: HEK cells, R848 agonist 30 uM final concentration, Steady-Glo readout; read-out: TLR8 potency
T2 construct: expressed in transfected cells; host or cells: HEK/293 reporter cells (NF-kB luciferase)
T2 sequence (Q9NR97 27-1041): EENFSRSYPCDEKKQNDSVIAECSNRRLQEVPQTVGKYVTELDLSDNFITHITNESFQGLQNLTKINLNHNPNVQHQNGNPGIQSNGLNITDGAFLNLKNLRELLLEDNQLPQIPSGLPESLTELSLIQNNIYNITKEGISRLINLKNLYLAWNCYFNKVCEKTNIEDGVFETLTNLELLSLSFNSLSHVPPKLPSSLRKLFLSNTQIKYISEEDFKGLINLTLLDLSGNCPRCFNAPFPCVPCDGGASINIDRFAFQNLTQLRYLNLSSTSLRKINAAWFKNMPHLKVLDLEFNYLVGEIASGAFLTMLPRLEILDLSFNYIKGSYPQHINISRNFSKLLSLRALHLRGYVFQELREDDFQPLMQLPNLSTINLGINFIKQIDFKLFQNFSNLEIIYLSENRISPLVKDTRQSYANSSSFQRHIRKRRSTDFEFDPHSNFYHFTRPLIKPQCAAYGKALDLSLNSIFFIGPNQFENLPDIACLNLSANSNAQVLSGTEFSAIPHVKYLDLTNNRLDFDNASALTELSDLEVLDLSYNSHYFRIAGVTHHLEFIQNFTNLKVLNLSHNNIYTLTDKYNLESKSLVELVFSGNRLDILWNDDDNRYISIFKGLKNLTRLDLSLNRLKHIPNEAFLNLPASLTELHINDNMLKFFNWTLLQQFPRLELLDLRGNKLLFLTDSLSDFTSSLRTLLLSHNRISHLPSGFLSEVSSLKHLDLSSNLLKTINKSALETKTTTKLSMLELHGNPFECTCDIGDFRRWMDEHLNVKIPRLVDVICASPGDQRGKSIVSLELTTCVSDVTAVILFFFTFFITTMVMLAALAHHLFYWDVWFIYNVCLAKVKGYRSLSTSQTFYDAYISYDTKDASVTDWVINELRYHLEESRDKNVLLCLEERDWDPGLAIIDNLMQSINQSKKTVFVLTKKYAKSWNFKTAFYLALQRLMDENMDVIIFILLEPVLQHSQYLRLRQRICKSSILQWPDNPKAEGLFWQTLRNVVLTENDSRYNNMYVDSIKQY

SMILES | IC50 [1] [nM] | IC50 [2] [nM]
C[C@H]1C[C@@H](NCCC(=O)NC2CS(=O)(=O)C2)CN(c2ccc(C(F)(F)F)c3ncccc23)C1 [Example 54, N-(1,1-Dioxo-1lambda6-thietan-3-yl)-3-[(3R,5S)-5-methyl-1-(8-trifluoromethyl-quinolin-5-yl)-piperidin-3-ylamino]-propionamide] | < 75 | < 75
C[C@H]1C[C@@H](NC(=O)[C@@H](N)C(C)(C)O)CN(c2ccc(C#N)c3nccnc23)C1 [Example 173, (S)-2-Amino-N-[(3R,5S)-1-(8-cyano-quinoxalin-5-yl)-5-methyl-piperidin-3-yl]-3-hydroxy-3-methyl-butyramide] | < 75 | < 75
C[C@@H]1CN(c2ccc(C#N)c3nccnc23)C[C@H](C(=O)NC2CN(CC(F)(F)F)C2)O1 [Example 254, (2R,6R)-4-(8-Cyano-quinoxalin-5-yl)-6-methyl-morpholine-2-carboxylic acid [1-(2,2,2-trifluoro-ethyl)-azetidin-3-yl]-amide] | < 75 | > 150
C[C@@H]1CN(c2ccc(C#N)c3nccnc23)C[C@H](CSCC(O)CO)O1 (stereo partly drawn) [Example 227, 8-[(2R,6R)-2-(2,3-Dihydroxy-propylsulfanylmethyl)-6-methyl-morpholin-4-yl]-quinoxaline-5-carbonitrile] | 75 to 150 | < 75
C[C@@H]1CN(c2ccc(C#N)c3nccnc23)C[C@H](C(=O)NC[C@@H](O)CO)O1 [Example 233, (2R,6R)-4-(8-Cyano-quinoxalin-5-yl)-6-methyl-morpholine-2-carboxylic acid ((R)-2,3-dihydroxy-propyl)-amide] | < 75 | < 75
C[C@@H]1CN(c2ccc(C#N)c3nccnc23)C[C@H](C(=O)NC2CCNC3(CCC3)C2)O1 (stereo partly drawn) [Example 291, (2R,6R)-4-(8-Cyano-quinoxalin-5-yl)-6-methyl-morpholine-2-carboxylic acid (5-aza-spiro[3.5]non-8-yl)-amide] | < 75 | < 75
C[C@H]1C[C@@H](OCCN2CCCCC2)CN(c2ccc(C(F)(F)F)c3ncccc23)C1 (racemic) [Example 3, 5-[cis-3-methyl-5-[2-(piperidin-1-yl)ethoxy]piperidin-1-yl]-8-(trifluoromethyl)quinolone] | > 150 | < 75
C[C@@H]1CN(c2cnc(C#N)c3ncccc23)C[C@H](C(=O)NCC2(F)CNC2)O1 [Example 301, (2R,6R)-4-(8-Cyano-[1,7]naphthyridin-5-yl)-6-methyl-morpholine-2-carboxylic acid (3-fluoro-azetidin-3-ylmethyl)-amide] | < 75 | < 75
C[C@H]1C[C@@H](n2ccnc2)CN(c2ccc(C#N)c3ncccc23)C1 [Example 158, 5-[(3R,5S)-3-(1H-imidazol-1-yl)-5-methylpiperidin-1-yl]quinoline-8-carbonitrile] | > 150 | < 75
C[C@@H]1CN(c2cnc(C#N)c3ncccc23)C[C@H](CNC(=O)[C@]2(F)CCNC2)O1 (single isomer, unassigned) [Example 337] | < 75 | < 75
C[C@@H]1CN(c2cnc(C#N)c3ncccc23)C[C@H](CNCC2(F)CCOCC2)O1 [Example 377, 5-((2S,6R)-2-{[(4-Fluoro-tetrahydro-pyran-4-ylmethyl)-amino]-methyl}-6-methyl-morpholin-4-yl)-[1,7]naphthyridine-8-carbonitrile] | > 150 | > 150
N#Cc1ncc(N2C[C@@H](C(F)(F)F)O[C@@H](C(=O)NC[C@]3(F)CCNC3)C2)c2cccnc12 (single isomer, unassigned) [Example 320] | > 150 | > 150
Cc1ccc(N2C[C@@H](C)C[C@@H](NC(=O)[C@@H](N)CC(N)=O)C2)c2cccnc12 [Example 130, (2S)-2-amino-N-[(3R,5S)-5-methyl-1-(8-methylquinolin-5-yl)piperidin-3-yl]butanediamide] | 75 to 150 | < 75
C[C@@H]1CN(c2cnc(C#N)c3ncccc23)C[C@H](C(=O)NCC2(F)CCNCC2)O1 [Example 300, (2R,6R)-4-(8-Cyano-[1,7]naphthyridin-5-yl)-6-methyl-morpholine-2-carboxylic acid (4-fluoro-piperidin-4-ylmethyl)-amide] | < 75 | 75 to 150
N#Cc1ccc(N2C[C@@H](C(=O)NCC3(F)CCNCC3)O[C@@H](C(F)(F)F)C2)c2nccnc12 (single isomer, unassigned) [Example 306] | < 75 | < 75
C[C@H](O)CNC(=O)[C@H]1CN(c2ccc(C#N)c3nccnc23)C[C@@H](C(F)(F)F)O1 (single isomer, unassigned) [Example 286] | > 150 | > 150
C[C@H]1C[C@@H](NS(=O)(=O)NC(=O)CC2CCN(C)CC2)CN(c2ccc(C(F)(F)F)c3ncccc23)C1 [Example 202, N-{[(3R,5S)-5-methyl-1-[8-(trifluoromethyl)quinolin-5-yl]piperidin-3-yl]sulfamoyl}-2-(1-methylpiperidin-4-yl)acetamide] | 75 to 150 | < 75
C[C@H]1C[C@@H](NCCNS(C)(=O)=O)CN(c2ccc(C(F)(F)F)c3nccnc23)C1 [Example 23, N-{2-[(3R,5S)-5-Methyl-1-(8-trifluoromethyl-quinoxalin-5-yl)-piperidin-3-ylamino]-ethyl}-methanesulfonamide] | < 75 | < 75
Cc1c(F)cc(N2C[C@@H](C)C[C@@H](NC(=O)[C@H](N)CO)C2)c2cccnc12 [Example 135, (R)-2-Amino-N-[(3R,5S)-1-(7-fluoro-8-methyl-quinolin-5-yl)-5-methyl-piperidin-3-yl]-3-hydroxy-propionamide] | < 75 | < 75
C[C@H]1C[C@@H](NC(=O)C2CCN(C(=O)[C@@H](N)[C@@H](C)O)CC2)CN(c2ccc(C(F)(F)F)c3ncccc23)C1 [Example 182, 1-((2S,3R)-2-Amino-3-hydroxy-butyryl)-piperidine-4-carboxylic acid [(3R,5S)-5-methyl-1-(8-trifluoromethyl-quinolin-5-yl)-piperidin-3-yl]-amide] | < 75 | < 75
N#Cc1ccc(N2C[C@H](NC(=O)CC3(N)CC3)C[C@H](C(F)(F)F)C2)c2nccnc12 [Example 119, 2-(1-aminocyclopropyl)-N-[(3R,5S)-1-(8-cyanoquinoxalin-5-yl)-5-(trifluoromethyl)piperidin-3-yl]acetamide] | 75 to 150 | < 75
CN1CC[C@@](F)(CNC(=O)[C@@H]2CN(c3ccc(C#N)c4nccnc34)C[C@H](C(F)(F)F)O2)C1 (single isomer, unassigned) [Example 356] | < 75 | < 75
